# Literature values as cited in paper PMC4630399, “Charge-Based Inhibitors of Amylin Fibrillization and Toxicity” (Journal of Diabetes Research, 2015).
# “Also recorded” adds a separate entry of the source. No end group written: not given here.
# Legend:
# WT-amylin fibrillization = conditions: added in trans; cited from earlier work
# Description: In type 2 diabetes, the positively charged 37-residue hormone amylin misfolds into cationic fibrils which have been implicated in the destruction of the pancreatic β-cells that make insulin and amylin, thus contributing to pathology. Amylin is a particularly favorable system for investigating the roles of charges in fibrillization, since the core of the intermolecular β-sheet fibril structure has only one pH-titratable group, His18 [9]. The histidine acts as an electrostatic switch, inhibiting fibrillization in its charged state at acidic pH and favoring fibrillization in its uncharged ... || An IC50 analysis of the inhibition data was performed to obtain quantitative information (Figure 5). The Arg-1 concentration-dependence for the inhibition of WT-amylin fibril elongation rates gives an IC50 value of 0.6 ± 0.5 μM. For Arg-2 and Mem-T, the IC50 values are ~10 μM (Figure 5(a)). In addition to effecting elongation rates, Arg-2 increases the lag times for WT-amylin fibrillization with an IC50 of ~0.1 μM. […] Moreover, addition of a single charged lysine residue ...
# [1] = design: method as in 2 sources, ref 21 = [21]; PMID 23016872; doi:10.1021/bi300574r; 21 Marek P. J. Patsalo V. Green D. F. Raleigh D. P. Ionic strength effects on amyloid formation by amylin are a complicated interplay among debye screening, ion selectivity, and hofmeister effects Bio ||| ref 7 = [7]; PMID 22206987; doi:10.1016/j.jmb.2011.12.032; 7 Cao P. Tu L.-H. Abedini A. Sensitivity of amyloid formation by human islet amyloid polypeptide to mutations at residue 20 Journal of Molecular Biology 2012 421 2-3 282 295 10.1016/j.jmb.2011.12.032; conditions: compared to WT-amylin; cited from earlier work
# Description: In type 2 diabetes, the positively charged 37-residue hormone amylin misfolds into cationic fibrils which have been implicated in the destruction of the pancreatic β-cells that make insulin and amylin, thus contributing to pathology. Amylin is a particularly favorable system for investigating the roles of charges in fibrillization, since the core of the intermolecular β-sheet fibril structure has only one pH-titratable group, His18 [9].
substance,measurement,setting,value
"S20K: amylin with the S20K mutation (KCNTATCATQRLANFLVHSKNNFGAILSSTNVGSNTY; not fully specified (C-terminus); ends and bridges not checked; UniProt P10997 34-70, looked up, variant S20K)",inhibition of WT-amylin fibrillization,WT-amylin fibrillization,inhibit fibrillization of the WT-amylin peptide; also recorded: inhibits fibrillization of WT-amylin when added in trans
same,fibrillization of mutant amylin,[1],much slower fibrillization; also recorded: fibrillizes much more slowly
